Results from article PMC9206686, “Expression, characterization, and activity optimization of a novel cellulase from the thermophilic bacteria Cohnella sp. A01” (Scientific Reports, 2022).

Biological target: T1, CelC307 (Cohnella sp. A01, UniProt A0A6C0R5L1)
T1 construct: Ni-NTA or heat-shock purified; GH5 domain predicted 77-362; primers imply N-terminus MGDLERL, C-terminus HAGAR before tag
T1 sequence (A0A6C0R5L1 1-491): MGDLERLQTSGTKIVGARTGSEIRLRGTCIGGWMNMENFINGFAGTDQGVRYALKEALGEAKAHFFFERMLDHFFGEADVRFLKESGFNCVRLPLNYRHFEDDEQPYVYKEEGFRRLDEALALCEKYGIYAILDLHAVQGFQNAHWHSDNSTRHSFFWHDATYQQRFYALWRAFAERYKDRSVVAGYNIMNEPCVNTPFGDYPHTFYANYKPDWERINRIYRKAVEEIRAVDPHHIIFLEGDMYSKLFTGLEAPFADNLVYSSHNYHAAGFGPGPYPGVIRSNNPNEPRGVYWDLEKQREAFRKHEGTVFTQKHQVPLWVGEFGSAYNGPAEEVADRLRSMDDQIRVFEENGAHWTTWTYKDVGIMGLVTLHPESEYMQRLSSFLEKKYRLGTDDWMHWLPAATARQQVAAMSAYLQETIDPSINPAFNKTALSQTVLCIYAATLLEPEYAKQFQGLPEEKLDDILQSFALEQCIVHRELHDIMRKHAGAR
Assay: DNS reducing-sugar assay, Lineweaver-Burk
Type: biochemical
Conditions: inhibitor, CMC substrate; […] inhibitor, pH […] °C

SMILES | inhibition mode (mixed-type) | inhibition mode (non-competitive)
OCC1(O)OC[C@@H](O)[C@@H](O)[C@@H]1O (stereo partly drawn) [fructose] | the fructose and lactose exhibited the mixed-type inhibition mode | 
OC[C@H]1O[C@@H](O[C@H]2[C@H](O)[C@@H](O)C(O)O[C@@H]2CO)[C@H](O)[C@@H](O)[C@H]1O (stereo partly drawn) [lactose] | the fructose and lactose exhibited the mixed-type inhibition mode | 
OC[C@H]1O[C@H](O[C@H]2[C@H](O)[C@@H](O)C(O)O[C@@H]2CO)[C@H](O)[C@@H](O)[C@@H]1O (stereo partly drawn) [maltose] |  | the inhibition mode of maltose was non-competitive because the Vmax was reduced
